The values that follow come from patent publication US8557823B2, “Family of PFKFB3 inhibitors with anti-neoplastic activities” (Advanced Cancer Therapeutics, LLC, priority 2007, dated 2013).

Like-named read-outs stand apart in the source and are kept apart here. Bounds are passed on as bounds.

What all share (format): cell-based
For one assay, the system named is Jurkat. As to the kind of experiment: Cancer cell proliferation, Alamar Blue assay 72 hours, Jurkat. On the procedure:
(§1) The ability of the compounds described herein to kill or inhibit the proliferation of cancer cells was measured using either the MTT assay, the Alamar Blue assay, or the Cell Titer Glow® assay using 48 or 72 hours exposure. […] The procedures are briefly described below. Cells of the desired tumor cell line were plated at 2×10^5 cells/ml in 96 well plates. Twice the indicated concentrations of the compounds of the invention were added to cells the following day in an equal volume of media. 72 hours later, cells were lysed and subjected to ATP determination using the CellTiter Glo-Luminescent Cell Viability Assay kit (Promega, Madison, Wis.). Experiments were done in triplicate. When using the MTT assay or the Alamar blue assay, the experimental conditions are essentially similar; at the end of the incubation period, 20 microl of the MTT solution is added per well and the samples are incubated for an additional four hours, rinsed and the absorbance at 570 nm measured. Results for the inhibition of cells proliferation are reported as IC50 as commonly done (the concentration leading to a 50% inhibition of proliferation of the cell population) and are listed in the Tables below. Table 4 lists the IC50 for the compounds of the invention in several cell lines including Jurkat, Calu-6, NCI-H82, U937, or NCI-H1437 cancer cell lines. Table 5 lists the IC50 of PFK-070 in a panel of 10 cell lines.

In another assay the test system is Calu-6. As to the kind of experiment: Cancer cell proliferation, Alamar Blue assay 72 hours, Calu-6. The following applies: Homo sapiens. On the procedure:
as §1
Background: The colour change of resazurin is a common sign of viable cells or microbes.

The next assay relates to NCI-H82. The assay can be described thus: Cancer cell proliferation, Alamar Blue assay 72 hours, NCI-H82. The conditions noted are these: Homo sapiens. Here is the method:
as §1

Another assay deals with U937. As to the kind of experiment: Cancer cell proliferation, Alamar Blue assay 72 hours, U937. The conditions noted are these: Homo sapiens, U-937. On the procedure:
as §1

Usually IC50 stands for the concentration that inhibits the measured activity by half. A higher IC50 goes with weaker potency in that assay.

The molecule `O=C(/C=C/c1ccc2cccnc2c1)c1cccnc1` [ACT-PFK-037, 1-Pyridin-3-yl-3-quinolin-7-yl-propenone] showed an IC50 in the assay on Jurkat (Homo sapiens, Jurkat, 72 h) of 2500 nM.
Consider `Nc1ccccc1C(=O)/C=C/c1ccc2ccccc2n1` [ACT-PFK-088, 1-(2-Amino-phenyl)-3-quinolin-2-yl-propenone], for which the IC50 with Calu-6 is over 100000 nM; in the assay with Jurkat (Homo sapiens, Jurkat, 72 h) it was over 100000 nM; with NCI-H82 it was 38500 nM; in the assay with U937, 17200 nM.
In turn, `O=C(/C=C/c1cnc2ccccc2c1)c1cccnc1` [ACT-PFK-048, 1-Pyridin-3-yl-3-quinolin-3-yl-propenone] yielded a concentration for half-maximal inhibition (IC50) in the assay on Jurkat (Homo sapiens, Jurkat, 72 h) of 17000 nM.
For the molecule `Cc1ccc(C(=O)/C=C/c2ccc3ccccc3n2)cc1` [ACT-PFK-068, 3-Quinolin-2-yl-1-p-tolyl-propenone], the IC50 stood at 4800 nM with Calu-6; 5500 nM with Jurkat (Homo sapiens, Jurkat, 72 h); 1600 nM with U937.
In the assay on Jurkat (Homo sapiens, Jurkat, 72 h), `O=C(/C=C/c1cccc2ncccc12)c1ccncc1` [ACT-PFK-038, 1-Pyridin-4-yl-3-quinolin-5-yl-propenone] showed an IC50 of 1000 nM.
Same read-out and setting: as for `O=C(/C=C/c1ccnc2ccccc12)c1ccncc1` [ACT-PFK-013, 1-Pyridin-4-yl-3-quinolin-4-yl-propenone], the figure is 1000 nM.
Take `O=C(/C=C/c1cccc2ncccc12)c1cccnc1` [ACT-PFK-039, 1-Pyridin-3-yl-3-quinolin-5-yl-propenone]: the IC50 in the assay with Jurkat (Homo sapiens, Jurkat, 72 h) worked out at 1000 nM. In other words, the single-digit micromolar range.
On the same count and under the same terms, the figure for `O=C(/C=C/c1ccc2ccccc2n1)c1cccnc1` [ACT-PFK-035, 1-Pyridin-3-yl-3-quinolin-2-yl-propenone] is 2500 nM; for `O=C(/C=C/c1cccc2cccnc12)c1ccncc1` [ACT-PFK-047, 1-Pyridin-4-yl-3-quinolin-8-yl-propenone] it is 14000 nM.
As for `Cc1ccc(C(=O)/C=C/c2ccc3cccc(O)c3n2)cc1` [ACT-PFK-071, 3-(8-Hydroxy-quinolin-2-yl)-1-p-tolyl-propenone], the half-inhibitory concentration (IC50) in the assay on Calu-6 was found to be 5000 nM; in the assay on Jurkat (Homo sapiens, Jurkat, 72 h), 4800 nM; with U937 it was 1900 nM.
In turn, `O=C(/C=C/c1cnc2ccccc2c1)c1ccncc1` [ACT-PFK-055, 1-Pyridin-4-yl-3-quinolin-3-yl-propenone] returned an IC50 in the assay on Jurkat of over 100000 nM.
On to `Cc1ccc(C(=O)/C=C/c2cc(O)c3ccccc3n2)cc1` [ACT-PFK-073, 3-(4-Hydroxy-quinolin-2-yl)-1-p-tolyl-propenone], for which the IC50 in the assay on Calu-6 was determined as 800 nM; in the assay with Jurkat (Homo sapiens, Jurkat, 72 h), 600 nM; in the assay on U937, 200 nM.
Regarding `O=C(/C=C/c1ccc2cccc(O)c2n1)c1cccnc1` [ACT-PFK-067, 3-(8-Hydroxy-quinolin-2-yl)-1-pyridin-3-yl-propenone], the IC50 stood at 2400 nM with Calu-6; 3100 nM in the assay with Jurkat (Homo sapiens, Jurkat, 72 h); 830 nM in the assay with U937.
As to `O=C(/C=C/c1ccc2ccccc2n1)c1ccccc1O` [ACT-PFK-086, 1-(2-Hydroxy-phenyl)-3-quinolin-2-yl-propenone], the 50% inhibitory concentration (IC50) was over 100000 nM with Calu-6; 80500 nM with Jurkat (Homo sapiens, Jurkat, 72 h); 22500 nM in the assay on NCI-H82; 19300 nM in the assay with U937.
For `O=C(/C=C/c1ccc2ccccc2n1)c1ccc(O)cc1` [ACT-PFK-087, 1-(4-Hydroxy-phenyl)-3-quinolin-2-yl-propenone] the same measures were 1600 nM, 3700 nM, 2300 nM and 1300 nM.
Molecule `O=C(/C=C/c1cnc2ccccc2c1)c1ccncc1` [ACT-PFK-014, 1-Pyridin-4-yl-3-quinolin-3-yl-propenone] came in with an IC50 in the assay on Jurkat of 4000 nM.
The molecule `O=C(/C=C/c1ccnc2ccccc12)c1cccnc1` [ACT-PFK-036, 1-Pyridin-3-yl-3-quinolin-4-yl-propenone] yielded an IC50 in the assay on Jurkat (Homo sapiens, Jurkat, 72 h) of 2500 nM.
Regarding `O=C(/C=C/c1cc(O)c2ccccc2n1)c1ccncc1` [ACT-PFK-066, 3-(4-Hydroxy-quinolin-2-yl)-1-pyridin-4-yl-propenone], the IC50 was 3800 nM in the assay with Calu-6; 2400 nM in the assay with Jurkat (Homo sapiens, Jurkat, 72 h); 1300 nM with U937.
